{
  "source": "paper PMC4229098",
  "about": "“Alzheimer's Therapeutics Targeting Amyloid Beta 1–42 Oligomers I: Abeta 42 Oligomer Binding to Specific Neuronal Receptors Is Displaced by Drug Candidates That Improve Cognitive Deficits” (PLoS ONE, 2014)",
  "key": {"[1]": {"tested_on": "mature primary hippocampal and cortical cultures", "assay": "Membrane trafficking assay (MTT formazan exocytosis);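 note: mixed neuron and glia cultures from E18 Sprague-Dawley rat embryos, grown 3 weeks in 384-well plates, labeled vesicles quantified by imaging or spectrophotometry as percent of vehicle-treated wells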", "format": "cell-based, rat", "settings": "for EC50: preparation dosed alone, read-out: EC50 of Abeta preparation", "procedure": "Vesicular trafficking was measured using an adaptation of a method by Liu and Schubert [51]. […] Tetrazolium salts (3-(4,5-dimethylthiazol-2yl)-2,5diphenyl tetrazolium bromide, Roche Molecular Biochemicals) were added to a final concentration of 0.75 mM and incubated at 37°C for 60–90 min. Vesicular formazan remaining in cells was quantified by absorbance spectrometry (590 nm with 690 nm subtracted) following extraction with 1.6% Tween-20. All compounds were tested in quadruplicate wells for each concentration in at least 8 replicate experiments with data from all experiments pooled for analysis with means ± S.E.M.\nThe amount of labeled vesicles in treated cells is quantified by automated image processing or by spectrophotometry following extraction from cells and is calculated as a percentage of vehicle-treated values. Control wells consist of Abeta and vehicle treatment without test compounds. […] In the prevention configuration of this assay, compounds are added to neuronal cultures first, followed by oligomers. Compounds are also tested in the treatment configuration of this assay in which oligomers are added to the cultures first, followed by compound addition."}, "[2]": {"tested_on": "neuronal synaptic puncta in hippocampal/cortical cultures", "assay": "Abeta binding assay, neurons (immunofluorescence of neurite puncta)", "parameters": "species or system rat", "procedure": "Alternatively, displacement of prebound oligomers was evaluated by adding oligomers 60 min prior to the addition of compounds, followed by additional 30 minutes incubation. […] Images were acquired on a Cellomics VTi automated microscope with a 20X, 0.75 NA objective and analyzed using ThermoFisher/Cellomics Neuronal Profiling bioapplication set to measure punctate labeling of Abeta and synaptophysin-1 along MAP-2 labeled neurites. […]"}, "glia": {"tested_on": "glia", "assay": "Abeta binding assay, glia cell bodies", "parameters": "species or system rat", "procedure": "Measurements of Abeta binding to glia were made with a separate algorithm (ThermoFisher/Cellomics Target Activation bioapplication) which identifies cells lacking MAP2 labeling. Glial cells were analyzed after separating them based on their nuclear morphology as determined by the characteristics of their DAPI labeling, as described in Fig. S1. […]\nThe morphology of MAP-2 negative glial nuclei labeled with DAPI was analyzed via automated image processing. […]"}, "[3]": {"tested_on": "synaptophysin-immunopositive puncta along MAP2-labeled neurites", "assay": "Synapse counting assay", "format": "cell-based, rat", "settings": "synthetic Abeta oligomers vs vehicle, 24 hrs", "protocol": "Sprague-Dawley rats, 18 days pregnant, were euthanized by CO2 asphyxiation followed by cervical dislocation, and embryos were removed. Hippocampus and cortical tissue from the embryo brains were digested in 2.5% Trypsin (Life Technologies) to dissociate cells. Isolated cells were plated at a density of 4.6×10^4 cells per cm^2 in 384-well poly-D Lysine coated plates (Greiner) in Neurobasal Media (Life Technologies) supplemented with B27 (Life Technologies), Glutamax (Life Technologies) and antibiotics (penicillin, 50 units/ml and streptomycin 50 µg/ml, Life Technologies). Cultures were maintained at 37°C in 5% CO2 with weekly media change for 3 weeks prior to experimentation. These mixed cultures of hippocampal plus cortical neurons and glia were used for all of the in vitro experiments described.\nCultures were treated with compounds for 60 minutes prior to addition of 6 µM (maximum from trafficking dose-response curve) of synthetic Abeta 1–42 oligomers and incubated for 24 hrs. Cultures were fixed and immunofluorescently labeled and imaged as for the Abeta binding assay. The ThermoFisher/Cellomics Neuronal Profiling bioapplication was used to count synaptophysin-immunopositive puncta along MAP2-labeled neurites. The number of puncta per unit length of neurites was used to determine effects of treatments. To attain statistical power of 80% and a p value of less than 0.05 (determined using G*Power software), twenty replicate wells were treated per experiment plate and compared to control wells on the same plate and experiments were repeated four times."}, "[4]": {"tested_on": "C57/BL6 mice injected with Abeta oligomers", "assay": "Contextual fear conditioning after intrahippocampal Abeta oligomer injection", "format": "in vivo", "settings": "injected into dorsal hippocampi 24 hours prior to testing", "source_text": "All procedures were approved by the Institutional Animal Care and Use and Committee at Columbia University and Stanford University and were in compliance with the Office of Laboratory Animal Welfare and the Guide for the Care and Use of Laboratory Animals, Eighth Edition. Behavioral testing of wild-type, 3–4 month old, male, C57/BL6 mice, injected bilaterally into their hippocampus with Abeta oligomers and testing in the fear conditioning task was done according to published methods. Animals were anesthetized with […] Avertin prior to implantation of cannulas into the hippocampus. Testing of transgenic hAPP Swedish/London mice in the Morris water maze or fear conditioning tasks was done according to published methods, [38]. To measure brain concentration of drugs, brains were homogenized in 1 ml PBS per gram of brain tissue using a handheld homogenizer. Brain homogenate was then extracted with three volumes of ice cold methanol on ice for 15 minutes and centrifuged for 15 min. The supernates were analyzed by LC/MS/MS. Samples were compared to a calibration curve prepared in a similar manner by spiking blank control homogenate with standards prepared in DMSO and then extracted as above. At the end of all behavioral testing, animals were euthanized with CO2 followed by cervical dislocation."}, "[5]": {"tested_on": "hippocampal/cortical cultures", "assay": "Internalization of Abeta oligomers (immunolabeling with/without detergent)", "format": "cell-based, rat", "settings": "for bound Abeta at the surface: 1 µM", "protocol": "Supplementary file pone.0111898.s002.tif: Figure S2 Internalization of Abeta oligomers. After treatment with Abeta oligomers (1 µM) for 1 hr (A, B) or 2 hr (C, D), cultures were fixed and immunolabeled for Abeta either in the presence of 0.05% Triton X-100 to permeabilize cells to immunoglobulins and measure all Abeta present (A, C) or in the absence of this detergent (B, D) to detect only Abeta bound at the cell surface. […] (TIF) Click here for additional data file."}, "[6]": {"settings": "listed as synthetic Abeta oligomers"}},
  "note": "“And” between values parts separate entries of the source, which are not always exact repeats. Equal values may be shown once. Read-outs that look alike come from different tables or passages of the source.",
  "data": [
    {"substance": "synthetic oligomers (high concentration): synthetic human Abeta 1–42 oligomerized at 100 µM, 4°C, 24 hr; contains monomer [reference compound]", "values": [
      {"measurement": "Treatment duration for maximum response", "setting": "[1]; Abeta preparation dosed alone", "value": 24, "unit": "h"},
      {"measurement": "EC50", "setting": "[1]; [6]", "value": "0.462 ± 0.056", "unit": "µM"},
      {"measurement": "EC50", "setting": "[1]", "value": 0.46, "unit": "µM"},
      {"measurement": "bound puncta colocalizing with synaptophysin presynaptic terminals", "setting": "[2]; 440 nM total Abeta, 60 minutes", "value": "37%±3%"},
      {"measurement": "Kd", "setting": "[2]; 60 min treatment, read-out: Kd Site 1 (high affinity), neurons synaptic puncta", "value": 0.518, "unit": "µM"},
      {"measurement": "Kd", "setting": "glia; non-saturable site, read-out: Kd Site 2, glia cell bodies with condensed/asymmetric nuclear morphology", "value": "> 1000", "unit": "µM"},
      {"measurement": "Kd", "setting": "glia; read-out: Kd Site 1 (high affinity), glia cell bodies with condensed/asymmetric nuclear morphology", "value": 0.289, "unit": "µM"},
      {"measurement": "loss of synaptophysin-immunoreactive puncta", "setting": "[3]; listed as Oligomers", "value": "18%±2"},
      {"measurement": "loss of synaptophysin-immunoreactive puncta", "setting": "[3]; [6]", "value": 18, "unit": "%"},
      {"measurement": "effect of Abeta oligomers on contextual fear memory", "setting": "[4]", "value": "cause a deficit in contextual fear conditioning-dependent associative memory"},
      {"measurement": "bound Abeta at the surface", "setting": "[5]; 1 hr exposure", "value": "96%±8%"},
      {"measurement": "bound Abeta internalized", "setting": "[5]; 2 hr exposure, listed as Abeta oligomers", "value": "27%±8% and 27±8%"},
      {"measurement": "bound Abeta at the surface", "setting": "[5]; 2 hrs exposure", "value": "73%±3%"}
    ]}
  ]
}
